According to patent US9599627B2, “NMR methods for monitoring blood clot formation” (T2 Biosystems, Inc., priority 2011, dated 2017):

Key:
[1] = test system: P2Y12 pathway in platelets; assay: T2MR platelet inhibition, ADP activation formulation in citrated whole blood; format: cell-based, human; conditions: ex vivo spiked MeSAMP, healthy donors
Text: We have developed a standard formulation for ADP activation of platelets in citrated whole blood which uses the addition of heparin to control thrombin activation, thereby minimizing variability in platelet activation via thrombin. Clotting in such a system is initiated with a combination of calcium (to overcome citrate), and reptilase/factor XIIIa (to replace thrombin). The complete one-pot activation mixture which activates platelets via ADP, and is therefore useful in probing the state of the P2Y12 ADP receptor, contains heparin, reptilase, factor XIIIa, calcium, and ADP.
In this experiment inhibition of the P2Y12 pathway in platelets by using the ex vivo spiked MeSAMP (2-thiomethyl AMP, an irreversible ADP P2Y12 receptor inhibitor) as a mimic for Plavix inhibition of platelet activity was tested.
A standard ADP activation formulation including heparin, reptilase, factor XIIIa, calcium, and ADP was used to activate platelet in citrated whole blood obtained from healthy donors. Samples were tested in the presence and absence of the platelet activation inhibitor MeSAMP. Again we observed that the clot signature was dependent on platelet activity.

[2] = test system: anti-Xa; assay: PT clotting time of spiked samples (T2MR and Stago); format: cell-based, human; conditions: spiked at 10 ng/mL-1000 ng/mL
Procedure: Clotting times were measured by […] by first establishing a time zero T2 value (i.e., by taking the first point or some sort of average or linear fit to the first 5-10 data points) of the T2 time curve, and second identifying the time point (i.e., the clotting time or PT time) in the T2 time curve when the T2 value had changed by a predetermined amount (e.g. 5% or 10%) indicative of clotting in the sample. From the observed PT clotting time the INR was calculated using the methods described in Jan et al., Clin. Chem. 35:840 (1989). […] 18 normal samples and 24 abnormal samples were tested against a reference range established by 20 normal samples. Abnormal samples with prolonged PT times were obtained by spiking increasing levels of the anti-Xa inhibitor Rivaroxiban (10 ng/mL-1000 ng/mL). Correlation with TEG clotting time was obtained across >40 normal patient samples with non-optimized R2 correlation of >0.8. (see FIG. 14B). PT time correlations with Stago for plasma (see FIG. 14D) and with Hemochron for whole blood (see FIG. 14C) were also found.

[3] = test system: platelet activity; assay: T2MR platelet inhibition, heparin blood activated by AA+RF; format: cell-based; conditions: 600 μM aspirin ex vivo, AA+RF activation
Procedure: In this experiment platelet inhibition was monitored by the addition of 600 μM aspirin ex vivo to heparin blood prior to activation by AA+RF (samples were tested with and without aspirin). […] These studies confirmed that the clot signature was dependent on platelet activity.

Structure (SMILES): CSc1nc(N)c2ncn([C@@H]3O[C@H](COP(=O)(O)O)[C@@H](O)[C@H]3O)c2n1 [MeSAMP, 2-thiomethyl AMP]
- clot-associated T2 signal [1]: dramatically diminished or absent

Structure (SMILES): O=C(NC[C@H]1CN(c2ccc(N3CCOCC3=O)cc2)C(=O)O1)c1ccc(Cl)s1 [Rivaroxiban]
- PT times [2]: prolonged

Structure (SMILES): CC(=O)Oc1ccccc1C(=O)O [aspirin]
- clot-associated T2 signal [3]: dramatically diminished or absent
